Reference: patent publication US20090018111A1, “Novel Antimicrobial Medicament” (priority 2004, published 2009)
Read-outs that look alike come from different tables or passages of the source.

Legend:
Test in all cases: Sensitivity test (agar dilution), clinical isolate
[1] = system: Acinetobacter spp. 1195; format: cell-based, Acinetobacter calcoaceticus and Acinetobacter lwoffi; conditions: read-out: MIC
Experimental: (§1) In addition, the antibacterial activities were tested against strains which are comparatively less sensitive to β-lactam compounds, namely clinically isolated 13 strains of Acinetobacter calcoaceticus and Acinetobacter lwoffi, clinically isolated 11 strains of Serratia marcescens, clinically isolated 12 strains of Burkholderia cepacia, and clinically isolated 15 strains of Pseudomonas aeruginosa.
(§2) According to the standard method of Japan Chemotherapeutic Society (Chemotherapy, vol. […], p 76-79 (1981)) the test was carried out using the agar dilution method. After dissolving test samples in distilled water, agar medium containing the test samples was prepared in such a manner that the final concentration became twice serial dilution by pouring serially diluted combination drug solution or a single drug solution into agar medium. As agar medium was used Mueller Hinton Agar medium (MHA). Then, each strain was cultivated over night at 37° C. in an incubator and suspended in buffered saline solution with gelatin (BSG) in the concentration of about 10^6 CFU/ml. The suspension (about 5 μl) containing test strains was inoculated to the medium containing the test samples by Micro Planter.
(§3) Each drug was weighed, and dissolved in distilled water to give a test sample. When the drugs are used in combination, two kinds of solution containing each drug were mixed so as to be various ratio of concentration to give a mixed solution. When the sample is subjected to sensitivity test, this mixed solution was diluted by twice serial dilution method.
(§4) Furthermore, when the drug is solely used, each test sample was used as it is, and diluted by twice serial dilution method from the maximum concentration to the minimum concentration.

[2] = system: Acinetobacter spp. 14712; format: cell-based, Acinetobacter calcoaceticus and Acinetobacter lwoffi
Experimental: as §1, §2, §3, §4

[3] = system: Acinetobacter spp. 175; format: cell-based, Acinetobacter calcoaceticus and Acinetobacter lwoffi; conditions: Acinetobacter, read-out: MIC
Experimental: as §1, §2, §3, §4

[4] = system: B. cepacia 14300; format: cell-based, Burkholderia cepacia
Experimental: as §1, §2, §3, §4

[5] = system: B. cepacia 14427; format: cell-based, Burkholderia cepacia
Experimental: as §1, §2, §3, §4

[6] = system: B. cepacia 14428; format: cell-based, Burkholderia cepacia
Experimental: as §1, §2, §3, §4

[7] = system: B. cepacia 14429; format: cell-based, Burkholderia cepacia
Experimental: as §1, §2, §3, §4

[8] = system: B. cepacia 14430; format: cell-based, Burkholderia cepacia
Experimental: as §1, §2, §3, §4

[9] = system: B. cepacia 14607; format: cell-based, Burkholderia cepacia
Experimental: as §1, §2, §3, §4

[10] = system: B. cepacia 1892324; format: cell-based, Burkholderia cepacia
Experimental: as §1, §2, §3, §4

[11] = system: B. cepacia 1993527; format: cell-based, Burkholderia cepacia
Experimental: as §1, §2, §3, §4

[12] = system: B. cepacia 257-1; format: cell-based, Burkholderia cepacia
Experimental: as §1, §2, §3, §4

[13] = system: B. cepacia 3138; format: cell-based, Burkholderia cepacia
Experimental: as §1, §2, §3, §4

[14] = system: B. cepacia 7247; format: cell-based, Burkholderia cepacia
Experimental: as §1, §2, §3, §4

[15] = system: B. cepacia 7438; format: cell-based, Burkholderia cepacia
Experimental: as §1, §2, §3, §4

## C[C@H]1C=C(c2csc(SC3=C(C(=O)O)N4C(=O)[C@H]([C@@H](C)O)[C@H]4[C@H]3C)n2)CN1 [SM, (4R,5S,6S)-6-[(1R)-1-Hydroxyethyl]-4-methyl-3-({4-[(5S)-5-methyl-2,5-dihydro-1H-pyrrol-3-yl]-1,3-thiazol-2-yl}sulfanyl)-7-oxo-1-azabicyclo[3.2.0]hept-2-ene-2-carboxylic acid]
[1]; SPP.1195, Concomitant (ME:SM = 1:1)
  MIC: 0.25 µg/mL
[1]; SPP.1195, Concomitant (ME:SM = 1:2)
  MIC: 0.25 µg/mL
[1]; SPP.1195, Concomitant (ME:SM = 1:4)
  MIC: 0.25 µg/mL
[1]; SPP.1195, Concomitant (ME:SM = 2:1)
  MIC: 0.125 µg/mL
[1]; SPP.1195, alone
  MIC: 0.5 µg/mL
[2]; SPP.14712, Concomitant (ME:SM = 1:1)
  MIC: 0.5 µg/mL
[2]; SPP.14712, Concomitant (ME:SM = 1:2)
  MIC: 1 µg/mL
[2]; SPP.14712, Concomitant (ME:SM = 1:4)
  MIC: 1 µg/mL
[2]; SPP.14712, Concomitant (ME:SM = 2:1)
  MIC: 0.25 µg/mL
[2]; SPP.14712, alone
  MIC: 2 µg/mL
[3]; SPP.175, Concomitant (ME:SM = 1:1)
  MIC: 0.125 µg/mL
[3]; SPP.175, Concomitant (ME:SM = 1:2)
  MIC: 0.125 µg/mL
[3]; SPP.175, Concomitant (ME:SM = 1:4)
  MIC: 0.25 µg/mL
[3]; SPP.175, Concomitant (ME:SM = 2:1)
  MIC: 0.063 µg/mL
[3]; SPP.175, alone
  MIC: 0.5 µg/mL
[4]; Burkholderia cepacia, 14300, Concomitant (ME:SM = 1:1)
  MIC: 0.5 µg/mL
[4]; Burkholderia cepacia, 14300, Concomitant (ME:SM = 1:2)
  MIC: 1 µg/mL
[4]; Burkholderia cepacia, 14300, Concomitant (ME:SM = 1:4)
  MIC: 1 µg/mL
[4]; Burkholderia cepacia, 14300, Concomitant (ME:SM = 2:1)
  MIC: 0.25 µg/mL
[4]; Burkholderia cepacia, 14300, alone
  MIC: 2 µg/mL
[5]; Burkholderia cepacia, 14427, Concomitant (ME:SM = 1:1)
  MIC: 1 µg/mL
[5]; Burkholderia cepacia, 14427, Concomitant (ME:SM = 1:2)
  MIC: 1 µg/mL
[5]; Burkholderia cepacia, 14427, Concomitant (ME:SM = 1:4)
  MIC: 2 µg/mL
[5]; Burkholderia cepacia, 14427, Concomitant (ME:SM = 2:1)
  MIC: 0.5 µg/mL
[5]; Burkholderia cepacia, 14427, alone
  MIC: 8 µg/mL
[6]; Burkholderia cepacia, 14428, Concomitant (ME:SM = 1:1)
  MIC: 1 µg/mL
[6]; Burkholderia cepacia, 14428, Concomitant (ME:SM = 1:2)
  MIC: 2 µg/mL
[6]; Burkholderia cepacia, 14428, Concomitant (ME:SM = 1:4)
  MIC: 2 µg/mL
[6]; Burkholderia cepacia, 14428, Concomitant (ME:SM = 2:1)
  MIC: 0.5 µg/mL
[6]; Burkholderia cepacia, 14428, alone
  MIC: 8 µg/mL
[7]; Burkholderia cepacia, 14429, Concomitant (ME:SM = 1:1)
  MIC: 1 µg/mL
[7]; Burkholderia cepacia, 14429, Concomitant (ME:SM = 1:2)
  MIC: 1 µg/mL
[7]; Burkholderia cepacia, 14429, Concomitant (ME:SM = 1:4)
  MIC: 2 µg/mL
[7]; Burkholderia cepacia, 14429, Concomitant (ME:SM = 2:1)
  MIC: 0.5 µg/mL
[7]; Burkholderia cepacia, 14429, alone
  MIC: 4 µg/mL
[8]; Burkholderia cepacia, 14430, Concomitant (ME:SM = 1:1)
  MIC: 1 µg/mL
[8]; Burkholderia cepacia, 14430, Concomitant (ME:SM = 1:2)
  MIC: 2 µg/mL
[8]; Burkholderia cepacia, 14430, Concomitant (ME:SM = 1:4)
  MIC: 8 µg/mL
[8]; Burkholderia cepacia, 14430, Concomitant (ME:SM = 2:1)
  MIC: 1 µg/mL
[8]; Burkholderia cepacia, 14430, alone
  MIC: 8 µg/mL
[9]; Burkholderia cepacia, 14607, Concomitant (ME:SM = 1:1)
  MIC: 1 µg/mL
[9]; Burkholderia cepacia, 14607, Concomitant (ME:SM = 1:2)
  MIC: 1 µg/mL
[9]; Burkholderia cepacia, 14607, Concomitant (ME:SM = 1:4)
  MIC: 2 µg/mL
[9]; Burkholderia cepacia, 14607, Concomitant (ME:SM = 2:1)
  MIC: 0.5 µg/mL
[9]; Burkholderia cepacia, 14607, alone
  MIC: 4 µg/mL
[10]; Burkholderia cepacia, 1892324, Concomitant (ME:SM = 1:1)
  MIC: 1 µg/mL
[10]; Burkholderia cepacia, 1892324, Concomitant (ME:SM = 1:2)
  MIC: 2 µg/mL
[10]; Burkholderia cepacia, 1892324, Concomitant (ME:SM = 1:4)
  MIC: 2 µg/mL
[10]; Burkholderia cepacia, 1892324, Concomitant (ME:SM = 2:1)
  MIC: 1 µg/mL
[10]; Burkholderia cepacia, 1892324, alone
  MIC: 4 µg/mL
[11]; Burkholderia cepacia, 1993527, Concomitant (ME:SM = 1:1)
  MIC: 1 µg/mL
[11]; Burkholderia cepacia, 1993527, Concomitant (ME:SM = 1:2)
  MIC: 2 µg/mL
[11]; Burkholderia cepacia, 1993527, Concomitant (ME:SM = 1:4)
  MIC: 8 µg/mL
[11]; Burkholderia cepacia, 1993527, Concomitant (ME:SM = 2:1)
  MIC: 1 µg/mL
[11]; Burkholderia cepacia, 1993527, alone
  MIC: 8 µg/mL
[12]; Burkholderia cepacia, 2571, Concomitant (ME:SM = 1:1)
  MIC: 0.5 µg/mL
[12]; Burkholderia cepacia, 2571, Concomitant (ME:SM = 1:2)
  MIC: 0.5 µg/mL
[12]; Burkholderia cepacia, 2571, Concomitant (ME:SM = 1:4)
  MIC: 1 µg/mL
[12]; Burkholderia cepacia, 2571, Concomitant (ME:SM = 2:1)
  MIC: 0.25 µg/mL
[12]; Burkholderia cepacia, 2571, alone
  MIC: 4 µg/mL
[13]; Burkholderia cepacia, 3138, Concomitant (ME:SM = 1:1)
  MIC: 1 µg/mL
[13]; Burkholderia cepacia, 3138, Concomitant (ME:SM = 1:2)
  MIC: 2 µg/mL
[13]; Burkholderia cepacia, 3138, Concomitant (ME:SM = 1:4)
  MIC: 8 µg/mL
[13]; Burkholderia cepacia, 3138, Concomitant (ME:SM = 2:1)
  MIC: 1 µg/mL
[13]; Burkholderia cepacia, 3138, alone
  MIC: 8 µg/mL
[14]; Burkholderia cepacia, 7247, Concomitant (ME:SM = 1:1)
  MIC: 2 µg/mL
[14]; Burkholderia cepacia, 7247, Concomitant (ME:SM = 1:2)
  MIC: 4 µg/mL
[14]; Burkholderia cepacia, 7247, Concomitant (ME:SM = 1:4)
  MIC: 8 µg/mL
[14]; Burkholderia cepacia, 7247, Concomitant (ME:SM = 2:1)
  MIC: 1 µg/mL
[14]; Burkholderia cepacia, 7247, alone
  MIC: 16 µg/mL
[15]; Burkholderia cepacia, 7438, Concomitant (ME:SM = 1:1)
  MIC: 2 µg/mL
[15]; Burkholderia cepacia, 7438, Concomitant (ME:SM = 1:2)
  MIC: 2 µg/mL
[15]; Burkholderia cepacia, 7438, Concomitant (ME:SM = 1:4)
  MIC: 8 µg/mL
[15]; Burkholderia cepacia, 7438, Concomitant (ME:SM = 2:1)
  MIC: 1 µg/mL
[15]; Burkholderia cepacia, 7438, alone
  MIC: 16 µg/mL
